Data on 2 compounds can be found in ChEMBL document CHEMBL3526111, “In vitro hepatotoxicity and cytochrome P450 induction and inhibition characteristics of carnosic acid, a dietary supplement with antiadipogenic properties” (Drug Metab Dispos, 2012).

SMILES strings stand for the structures. Where only a bound is given, the exact number is not on record here.

The target in one series is CYP2C9 (Homo sapiens, UniProt P11712). As to the kind of experiment: Time dependent inhibition of CYP2C9 activity in human hepatocytes after 30 mins by liquid chromatography/tandem mass spectroscopy. Format: ADME, cell-based, Hepatocyte.
For a further series, the target named is T1, CYP1A2 (Homo sapiens, UniProt P05177).
T1 sequence (P05177 whole entry): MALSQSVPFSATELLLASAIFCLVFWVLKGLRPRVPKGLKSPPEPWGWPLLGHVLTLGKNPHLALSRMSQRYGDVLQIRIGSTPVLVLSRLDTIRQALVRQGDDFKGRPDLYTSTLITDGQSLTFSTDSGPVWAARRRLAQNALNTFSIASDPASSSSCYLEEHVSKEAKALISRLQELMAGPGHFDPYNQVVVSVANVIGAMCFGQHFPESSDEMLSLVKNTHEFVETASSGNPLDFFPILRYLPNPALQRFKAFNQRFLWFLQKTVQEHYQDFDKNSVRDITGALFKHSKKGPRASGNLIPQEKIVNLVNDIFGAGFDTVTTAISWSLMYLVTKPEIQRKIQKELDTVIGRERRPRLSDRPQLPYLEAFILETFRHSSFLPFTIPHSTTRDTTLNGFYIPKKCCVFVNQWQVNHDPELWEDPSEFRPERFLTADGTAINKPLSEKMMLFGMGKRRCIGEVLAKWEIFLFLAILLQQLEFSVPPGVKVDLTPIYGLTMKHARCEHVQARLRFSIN
Kind of series: Time dependent inhibition of CYP1A2 activity in human hepatocytes after 30 mins by liquid chromatography/tandem mass spectroscopy. Format: ADME, cell-based, Hepatocyte.

Series [1] concerns Hepatocyte. As to the kind of experiment: Cytotoxicity against human hepatocytes assessed as cytoplasm granulation with vacuoles after 24 hrs at 50 to 100 uM. Format: cell-based.
The test system of series [2] is Hepatocyte. As to the kind of experiment: Cytotoxicity against human hepatocytes assessed as reduction in cell viability after 24 hrs by ATP detection based assay.
In series [3] the test system is Hepatocyte. Kind of series: Cytotoxicity against human hepatocytes assessed as reduction in cell viability after 24 hrs by LDH release assay. Type of series: cell-based. (LDH in the medium is a marker of cell lysis.)
Series [4] has as its system Hepatocyte. As to the kind of experiment: Induction of apoptosis in human hepatocytes assessed as caspase 3/7 activation by caspase-Glo 3/7 assay. Type of series: cell-based.
A further series concerns the target Cytochrome P450 2C9 (Homo sapiens, UniProt P11712). Kind of series: Inhibition of CYP2C9 activity in human hepatocytes after 30 mins by liquid chromatography/tandem mass spectroscopy. Type of series: ADME, cell-based, Hepatocyte.
Series [5] deals with CYP2B6. Kind of series: Induction of CYP2B6 mRNA expression in human hepatocytes at 10 uM after 48 hrs relative to untreated control. Type of series: ADME, cell-based, Hepatocyte. As to conditions: read-out: FC; call rule not given here.
The nature of series [6]: Cytotoxicity against human hepatocytes assessed as cell viability after 24 hrs at 100 uM by ATP detection based assay. On the set-up: species or system Hepatocyte. As to conditions: read-out: Activity.
The subject of series [7] is CYP3A4. As to the kind of experiment: Induction of CYP3A4 mRNA expression in human hepatocytes at 10 uM after 48 hrs relative to untreated control. The note with it: read-out: FC. Type of series: ADME, cell-based, Hepatocyte.
The next series has as its target Cytochrome P450 3A4 (Homo sapiens, UniProt P08684). As to the kind of experiment: Inhibition of CYP3A4 activity in human hepatocytes after 30 mins by liquid chromatography/tandem mass spectroscopy. Type of series: ADME, cell-based, Hepatocyte.
Series [8] relates to Hepatocyte. As to the kind of experiment: Cytotoxicity against human hepatocytes assessed as loss of nuclei after 24 hrs at 50 to 100 uM. Type of series: cell-based.
For series [9], the target named is CYP3A4 (Homo sapiens, UniProt P08684). Kind of series: Time dependent inhibition of CYP3A4 activity in human hepatocytes after 30 mins by liquid chromatography/tandem mass spectroscopy. Format: ADME, cell-based, Hepatocyte.
The target of a further series is T2, CYP2C8 (Homo sapiens, UniProt P10632).
T2 sequence (P10632 whole entry): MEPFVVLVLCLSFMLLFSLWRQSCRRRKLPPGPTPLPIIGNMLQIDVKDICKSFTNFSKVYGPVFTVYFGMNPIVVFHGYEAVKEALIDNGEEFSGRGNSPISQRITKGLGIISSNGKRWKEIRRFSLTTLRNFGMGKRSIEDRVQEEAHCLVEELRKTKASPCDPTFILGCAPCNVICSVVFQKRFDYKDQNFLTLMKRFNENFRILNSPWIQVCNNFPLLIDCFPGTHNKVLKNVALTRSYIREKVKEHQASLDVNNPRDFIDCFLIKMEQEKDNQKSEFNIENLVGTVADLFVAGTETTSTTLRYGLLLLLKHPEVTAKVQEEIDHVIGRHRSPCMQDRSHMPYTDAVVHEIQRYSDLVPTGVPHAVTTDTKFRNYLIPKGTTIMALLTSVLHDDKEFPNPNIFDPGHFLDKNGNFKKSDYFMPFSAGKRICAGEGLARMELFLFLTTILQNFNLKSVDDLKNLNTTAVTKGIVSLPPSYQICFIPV
Kind of series: Time dependent inhibition of CYP2C8 activity in human hepatocytes after 30 mins by liquid chromatography/tandem mass spectroscopy. Format: ADME, cell-based, Hepatocyte.

Series [10] relates to Hepatocyte. As to the kind of experiment: Cytotoxicity against human hepatocytes assessed as reduction in cell viability after 4 hrs by ATP detection based assay.
In another series the target is CYP2E1 (Homo sapiens, UniProt P05181). As to the kind of experiment: Time dependent inhibition of CYP2E1 activity in human hepatocytes after 30 mins by liquid chromatography/tandem mass spectroscopy. Type of series: ADME, cell-based, Hepatocyte.
A further series concerns SULT2A1. As to the kind of experiment: Induction of SULT2A1 mRNA expression in human hepatocytes at 10 uM after 48 hrs relative to untreated control. Type of series: cell-based, Hepatocyte. As to conditions: read-out: FC.
The target of series [11] is T3, CYP2B6 (Homo sapiens, UniProt P20813).
T3 sequence (P20813 whole entry): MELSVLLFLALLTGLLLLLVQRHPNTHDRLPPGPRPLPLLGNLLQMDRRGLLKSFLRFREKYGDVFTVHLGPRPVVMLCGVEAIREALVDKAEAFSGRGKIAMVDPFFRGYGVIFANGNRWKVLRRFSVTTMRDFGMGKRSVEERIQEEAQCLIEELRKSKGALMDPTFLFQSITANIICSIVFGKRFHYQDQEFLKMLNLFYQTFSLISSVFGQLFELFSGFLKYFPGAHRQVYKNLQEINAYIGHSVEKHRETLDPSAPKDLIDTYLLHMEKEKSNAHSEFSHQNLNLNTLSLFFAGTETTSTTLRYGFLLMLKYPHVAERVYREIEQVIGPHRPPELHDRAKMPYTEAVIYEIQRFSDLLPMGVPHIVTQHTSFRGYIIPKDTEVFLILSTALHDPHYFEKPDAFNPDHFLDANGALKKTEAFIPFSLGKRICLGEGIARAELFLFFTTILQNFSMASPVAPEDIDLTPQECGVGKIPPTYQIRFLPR
Kind of series: Time dependent inhibition of CYP2B6 activity in human hepatocytes after 30 mins by liquid chromatography/tandem mass spectroscopy. Format: ADME, cell-based, Hepatocyte.

For another series, the target named is CYP2C19 (Homo sapiens, UniProt P33261). Kind of series: Time dependent inhibition of CYP2C19 activity in human hepatocytes after 30 mins by liquid chromatography/tandem mass spectroscopy. Format: ADME, cell-based, Hepatocyte.
The target in the next series is CYP2D6 (Homo sapiens, UniProt P10635). As to the kind of experiment: Time dependent inhibition of CYP2D6 activity in human hepatocytes after 30 mins by liquid chromatography/tandem mass spectroscopy. Type of series: ADME, cell-based, Hepatocyte.
Series [12] relates to Hepatocyte. As to the kind of experiment: Cytotoxicity against human hepatocytes assessed as reduction in cell viability after 4 hrs by LDH release assay. Format: cell-based.

Sequence of CYP2E1 (P05181 whole entry): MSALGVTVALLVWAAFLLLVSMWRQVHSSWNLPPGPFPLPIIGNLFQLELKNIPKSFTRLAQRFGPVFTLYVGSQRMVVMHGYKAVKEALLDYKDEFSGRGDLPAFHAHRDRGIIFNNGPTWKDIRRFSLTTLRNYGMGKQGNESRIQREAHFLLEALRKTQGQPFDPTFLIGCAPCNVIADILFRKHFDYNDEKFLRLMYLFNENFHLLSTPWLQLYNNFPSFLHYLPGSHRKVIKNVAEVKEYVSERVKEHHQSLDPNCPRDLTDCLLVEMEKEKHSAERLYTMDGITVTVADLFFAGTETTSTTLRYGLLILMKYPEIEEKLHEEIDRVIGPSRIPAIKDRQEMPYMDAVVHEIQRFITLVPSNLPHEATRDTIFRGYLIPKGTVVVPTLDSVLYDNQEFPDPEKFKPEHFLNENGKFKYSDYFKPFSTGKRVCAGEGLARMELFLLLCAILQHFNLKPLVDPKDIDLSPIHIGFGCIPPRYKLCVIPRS
Sequence of CYP2D6 (P10635 whole entry): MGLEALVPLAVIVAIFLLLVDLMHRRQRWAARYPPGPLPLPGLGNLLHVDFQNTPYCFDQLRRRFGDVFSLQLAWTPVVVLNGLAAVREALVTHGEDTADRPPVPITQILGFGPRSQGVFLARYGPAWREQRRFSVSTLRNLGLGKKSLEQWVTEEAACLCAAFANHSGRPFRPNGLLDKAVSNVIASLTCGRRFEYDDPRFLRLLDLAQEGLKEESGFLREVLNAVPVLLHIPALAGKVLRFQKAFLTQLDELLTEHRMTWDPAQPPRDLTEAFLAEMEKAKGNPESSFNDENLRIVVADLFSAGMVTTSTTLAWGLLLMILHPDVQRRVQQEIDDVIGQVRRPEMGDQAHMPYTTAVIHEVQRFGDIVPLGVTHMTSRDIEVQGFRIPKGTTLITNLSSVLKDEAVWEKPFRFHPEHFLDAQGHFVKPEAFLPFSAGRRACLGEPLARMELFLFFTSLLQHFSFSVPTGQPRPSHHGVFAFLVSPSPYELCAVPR
Sequence of Cytochrome P450 3A4 (P08684 whole entry): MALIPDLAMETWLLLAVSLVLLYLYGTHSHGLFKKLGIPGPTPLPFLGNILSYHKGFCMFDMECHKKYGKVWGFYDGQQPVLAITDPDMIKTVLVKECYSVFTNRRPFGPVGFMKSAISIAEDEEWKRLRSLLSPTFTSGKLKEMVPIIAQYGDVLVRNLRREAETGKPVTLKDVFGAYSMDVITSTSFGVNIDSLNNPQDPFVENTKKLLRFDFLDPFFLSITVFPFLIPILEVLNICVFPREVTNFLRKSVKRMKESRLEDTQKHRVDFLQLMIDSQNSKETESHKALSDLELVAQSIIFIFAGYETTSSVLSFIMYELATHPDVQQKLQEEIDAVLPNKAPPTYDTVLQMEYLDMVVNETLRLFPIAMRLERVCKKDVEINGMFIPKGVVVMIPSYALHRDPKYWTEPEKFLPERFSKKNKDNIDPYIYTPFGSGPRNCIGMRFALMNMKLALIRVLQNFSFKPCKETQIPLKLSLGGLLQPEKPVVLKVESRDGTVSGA
Sequence of CYP3A4 (Homo sapiens, UniProt P08684) (P08684 whole entry): as above
Sequence of CYP2C19 (P33261 whole entry): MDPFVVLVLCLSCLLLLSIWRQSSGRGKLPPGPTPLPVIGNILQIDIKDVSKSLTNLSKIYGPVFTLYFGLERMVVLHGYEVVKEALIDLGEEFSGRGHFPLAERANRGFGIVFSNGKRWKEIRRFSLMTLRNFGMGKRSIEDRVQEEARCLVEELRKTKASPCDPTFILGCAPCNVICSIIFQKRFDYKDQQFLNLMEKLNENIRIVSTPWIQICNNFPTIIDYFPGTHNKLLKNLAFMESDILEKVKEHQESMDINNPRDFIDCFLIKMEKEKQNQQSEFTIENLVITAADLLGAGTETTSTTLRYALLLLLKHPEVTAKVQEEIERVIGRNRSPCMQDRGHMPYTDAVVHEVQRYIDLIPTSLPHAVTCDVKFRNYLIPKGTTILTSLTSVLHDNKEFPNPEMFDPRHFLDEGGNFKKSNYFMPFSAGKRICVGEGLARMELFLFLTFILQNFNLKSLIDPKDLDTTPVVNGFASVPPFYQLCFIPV
Sequence of CYP2C9 (P11712 whole entry): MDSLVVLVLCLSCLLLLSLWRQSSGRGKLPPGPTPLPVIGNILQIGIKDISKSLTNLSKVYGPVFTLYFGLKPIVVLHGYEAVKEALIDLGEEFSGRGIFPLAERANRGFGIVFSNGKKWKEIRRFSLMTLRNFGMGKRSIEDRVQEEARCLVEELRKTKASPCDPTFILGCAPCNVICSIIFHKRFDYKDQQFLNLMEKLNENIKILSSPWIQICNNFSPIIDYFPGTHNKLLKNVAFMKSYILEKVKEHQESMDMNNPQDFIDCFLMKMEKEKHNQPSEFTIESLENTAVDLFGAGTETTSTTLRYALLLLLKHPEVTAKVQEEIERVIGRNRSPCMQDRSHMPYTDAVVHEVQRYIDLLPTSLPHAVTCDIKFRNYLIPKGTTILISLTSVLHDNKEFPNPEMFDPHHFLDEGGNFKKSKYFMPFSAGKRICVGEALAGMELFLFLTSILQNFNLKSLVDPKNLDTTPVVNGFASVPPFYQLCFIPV
Sequence of Cytochrome P450 2C9 (P11712 whole entry): as above

For `CC(C)c1cc2c(c(O)c1O)[C@@]1(C(=O)O)CCCC(C)(C)[C@@H]1CC2` [CARNOSIC ACID], the inhibition at 0.5 h against CYP2C9, at CYP1A2, on CYP3A4 [9], at CYP2C8, against CYP2E1 and on CYP2B6 [11] was below 11% in each case. Further, the inhibition at 0.5 h at CYP2C19 and against CYP2D6 was below 11% throughout. In addition, the Activity result in the series on Hepatocyte [1] is given as “Toxic”; in the series with Hepatocyte [4] it was “Non-toxic”; with Hepatocyte [8], “Toxic”. The values for the 50% effective concentration (EC50) in the series on Hepatocyte [2], in the series on Hepatocyte [3] and with Hepatocyte [10] were 94.8 µM, “Not Active” and 95.7 µM, respectively. Also, the inhibition constant (Ki) (in general, a measure of affinity in units of concentration, obtained from inhibition or displacement) came out at 9.2 µM at Cytochrome P450 2C9 and 4.3 µM at Cytochrome P450 3A4. Further, the fold induction at 48 h, 10 µM in the series on CYP2B6 [5] was found to be 4.5; with CYP3A4 [7] it was 13.9; in the series with SULT2A1, 2.4. Also, in series [6], the viability at 24 h, 100 µM was below 10%.
With `CC/C(=C(\c1ccccc1)c1ccc(OCCN(C)C)cc1)c1ccccc1` [TAMOXIFEN], the EC50 (commonly the concentration needed to bring the measured effect to its halfway point) in the series with Hepatocyte [2] is 34.4 µM; in the series with Hepatocyte [3], “Not Active”; in the series on Hepatocyte [12], 67.6 µM; in the series with Hepatocyte [10], 71.4 µM. The Activity entry in the series on Hepatocyte [4] is given as “Toxic”.
